Data taken from patent publication US12702693B2, “Treatment of cystic fibrosis by delivery of codon-optimized mRNA encoding CFTR” (Translate Bio, Inc., priority 2017, dated 2026).

Tests used:
[1] = available data; cited from earlier work
[2] = tested on: human bronchial epithelial cells; experiment: Ussing chamber assay of Forskolin-induced chloride channel activity; type: cell-based; conditions: all groups
Description: The changes in chloride transport across the bronchial epithelial cell membrane was measured by short circuit current output in an Ussing epithelial voltage clamp apparatus (i.e., a Ussing chamber). Specifically, using an established Ussing Chamber procedure (Charles River Laboratories), hCFTR mRNA encapsulated in a liposome comprising ICE, DOPE, and a PEG-modified lipid was incubated for 2 or 4 hours on the apical (mucosal) or basolateral (serosal) sides, or both sides, of human bronchial epithelial cells. A buffer blank also was included as a control, for example, to assess chloride transport by endogenous CFTR in the cells. Next, Forskolin-induced chloride channel activity was measured using the Ussing chamber assay.

Compound | mutagenicity/genotoxicity data [1] | chloride activity after addition of CFTR inhibitor [2]
CC(C)CCC[C@@H](C)[C@H]1CC[C@H]2[C@@H]3CC=C4C[C@@H](O)CC[C@]4(C)[C@H]3CC[C@]12C [cholesterol] | negative | 
CCC(=O)O [propionic acid] | negative | 
O=C(O)c1ccc(/C=C2\SC(=S)N(c3cccc(C(F)(F)F)c3)C2=O)cc1 [CFTR inhibitor-172] |  | inhibited
c1c[nH]cn1 [imidazole] | negative | 
